Patent US20260077069A1, “COMBINATIONS OF CONTRAST AGENTS” (BAYER AKTIENGESELLSCHAFT, priority 2022, published 2026)

What was measured:
[1] = Relaxivity measurements at 1.41 T in water and human plasma; type: physicochemical; conditions: 37° C., normalized to Gd
Method: Relaxivity measurements at 1.41 T were performed using a MiniSpec mq60 spectrometer (Bruker Analytik, Karlsruhe, Germany) operating at a resonance frequency of 60 MHz and a temperature of 37° C. The T1 relaxation times were determined using the standard inversion recovery (IR) method with a fixed relaxation delay of at least 5×T1. The variable inversion time (TI) was calculated automatically by the standard software of the MiniSpec mq60 (8 steps). The T2 measurements were performed by using a Carr-Purcell-Meiboom-Gill (CPMG) pulse sequence, applying a relaxation delay of at least 5×T1.
Each relaxivity measurement was performed using three different Gd concentrations (3 concentrations between 0.05 and 2 mM). The T1 and T2 relaxation times of the example compounds were measured in water and human plasma. Human plasma preparation: For each experiment fresh blood was taken from a volunteer using 10 mL citrate-tubes (Sarstedt S-Monovette 02.1067.001, 10 mL, Citrate). The 10 mL citrate-tubes were carefully inverted 10 times to mix blood and anticoagulant and centrifuged for 15 min at 1811 g at RT (Eppendorf, Centrifuge 5810R).
The relaxivities ri (where i=1, 2) were calculated based on the measured relaxation rates Ri in water and plasma:
where Ri(0) represent the relaxation rate of the respective solvent and CGd the concentration of the compound normalized to the Gadolinium. The Gadolinium concentrations of the investigated solutions were verified by Inductively Coupled Plasma Mass Spectrometry (ICP-MS Agilent 7500a, Waldbronn, Germany).

[2] = test system: freshly isolated rat hepatocytes; experiment: Uptake into freshly isolated rat hepatocytes; type: cell-based; conditions: uptake with OATP1B1/1B3 inhibitor Rifampicine 1:1, each 100 uM
Method: Freshly isolated rat hepatocytes were received as described before (Papeleu P. et al. (2006) Isolation of Rat Hepatocytes. In: Phillips I. R., Shephard E. A. (eds) Cytochrome P450 Protocols. Methods in Molecular Biology, vol 320. Humana Press, Totowa, NJ. https://doi.org/10.1385/1-59259-998-2:229). The rat hepatocytes were incubated (2.5·10^5 cells/well) for 2.5 to 4 h in collagen coated 24-well plates (Fa. Beckton Dickinson Biocoat, cell environments, Collagen I Cellware) in Williams E-medium (Fa. Sigma W1878) in an incubator (37° C., 5% CO2 and […]). After incubation the adherent hepatocytes were washed once with 37° C. Hepes carbonate transport buffer (500 μL/well). The test items and RC3 were prepared from stock solutions (180 to 500 mM concentration) in Hepes carbonate transport buffer at pH 7.4 to reach a final concentration of 100 μmol Gd/L. The specific uptake of the test item or RC3 into rat hepatocytes via OATP1B1 and OATP1B3 was challenged using a known OATP1B1/1B3 inhibitor (Rifampicine, Fa. Sigma R3501, test item and inhibitor 1:1 each 100 µM final concentration). The prepared rat hepatocyte plates were incubated with test solutions (500 μL/well) at 37° C. for 10 min using a thermoshaker (Fa. Grant Bio, PHMP). Triplicates were performed for each test item. After incubating the cells were washed once with cold PBS buffer (Fa. Gibco, Dulbeccos PBS (+)). After washing the intact hepatocytes were lysed by addition of 500 μL cold 0.01% Triton-X 100 in Millipore water for 1 h. The strongly hypo-osmolar water led to cell membrane rupture and the release of the intracellular Gd-compound. After 1 h 500 μL of 10 nM Terbium ICP-MS standard was added in 2% nitric acid and 0.01% Triton 100 before the Gadolinium concentrations in the lysate were measured using ICP-MS (Agilent 8900, singleQuad, integr. Time 0.3 s, no gas, 5 replicates, Gd m/z 157, Tb m/z 159). As a reference standard RC3 is used in the same well plate. The hepatocyte uptake of the test compound is calculated relative to RC3 (resulting in the unit % of RC3).

| SMILES | r1 human plasma [1] [L/mmol/s] | r1 water [1] [L/mmol/s] | Inhibition Rifampicine [2] [% inhibition] |
| --- | --- | --- | --- |
| CCOc1ccc(CC2CN(CC(=O)[O-])CCN(CC(=O)[O-])CCN(CC(=O)O)CCN2CC(=O)[O-])cc1.[Gd+3] (stereo not shown) [Compound 23] | 6.2 | 4.5 | 96 |
| CCOCCOc1ccc(CC(C(=O)[O-])N2CCN(CC(=O)[O-])CCN(C(CC)C(=O)O)CCN(CC(=O)[O-])CC2)cc1.[Gd+3] (stereo not shown) [Compound 13] | 7.4 | 4.5 | 99 |
| CCOCCOCCOc1ccc(CC(C(=O)[O-])N2CCN(CC(=O)[O-])CCN(C(CC)C(=O)[O-])CCN(CC(=O)O)CC2)cc1.[Gd+3] (stereo not shown) [Compound 20] | 6.9 | 4.8 | 97 |
| CCCCOc1cccc(CCC[C@@H](C(=O)O)N2CCN([C@@H](CO)C(=O)[O-])CCN([C@@H](CO)C(=O)[O-])CCN([C@@H](CO)C(=O)[O-])CC2)c1.[Gd+3] [Compound 19] | 18.0 | 4.9 | 90 |
| CC(C(=O)NCC(=O)N1CCN(C(=O)CNC(=O)C(C)N2CCN(CC(=O)[O-])CCN(CC(=O)[O-])CCN(CC(=O)[O-])CC2)CCN(C(=O)CNC(=O)C(C)N2CCN(CC(=O)[O-])CCN(CC(=O)[O-])CCN(CC(=O)[O-])CC2)CCN(C(=O)CNC(=O)C(C)N2CCN(CC(=O)[O-])CCN(CC(=O)[O-])CCN(CC(=O)[O-])CC2)CC1)N1CCN(CC(=O)[O-])CCN(CC(=O)[O-])CCN(CC(=O)[O-])CC1.[Gd+3].[Gd+3].[Gd+3].[Gd+3] (stereo not shown) [Compound 7] | 12.1 | 10.8 |  |
| CC(C(=O)NCC(=O)NCC(CNC(=O)CNC(=O)C(C)N1CCN(CC(=O)[O-])CCN(CC(=O)[O-])CCN(CC(=O)[O-])CC1)C(=O)NCCN(CCNC(=O)C(CNC(=O)CNC(=O)C(C)N1CCN(CC(=O)[O-])CCN(CC(=O)[O-])CCN(CC(=O)[O-])CC1)CNC(=O)CNC(=O)C(C)N1CCN(CC(=O)[O-])CCN(CC(=O)[O-])CCN(CC(=O)[O-])CC1)C(=O)C(CNC(=O)CNC(=O)C(C)N1CCN(CC(=O)[O-])CCN(CC(=O)[O-])CCN(CC(=O)[O-])CC1)CNC(=O)CNC(=O)C(C)N1CCN(CC(=O)[O-])CCN(CC(=O)[O-])CCN(CC(=O)[O-])CC1)N1CCN(CC(=O)[O-])CCN(CC(=O)[O-])CCN(CC(=O)[O-])CC1.[Gd+3].[Gd+3].[Gd+3].[Gd+3].[Gd+3].[Gd+3] (stereo not shown) [Compound 2] | 13.9 | 12.1 |  |
| CCOCCOc1ccc(CC2CN(CC(=O)[O-])CCN(CC(=O)[O-])CCN(CC(=O)[O-])CCN2CC(=O)O)cc1.[Gd+3] (stereo not shown) [Compound 22] | 6.6 | 4.8 | 94 |
| CCOCCOCCOc1ccc(CCC[C@@H](C(=O)O)N2CCN([C@@H](CO)C(=O)[O-])CCN([C@@H](CO)C(=O)[O-])CCN([C@@H](CO)C(=O)[O-])CC2)cc1.[Gd+3] [Compound 15] | 8.7 | 5.1 | 94 |
| CC(C(=O)NCC(=O)NCC(NC(=O)CNC(=O)C(C)N1CCN(CC(=O)[O-])CCN(CC(=O)[O-])CCN(CC(=O)[O-])CC1)C(=O)N1CC23CN(C(=O)C(CNC(=O)CNC(=O)C(C)N4CCN(CC(=O)[O-])CCN(CC(=O)[O-])CCN(CC(=O)[O-])CC4)NC(=O)CNC(=O)C(C)N4CCN(CC(=O)[O-])CCN(CC(=O)[O-])CCN(CC(=O)[O-])CC4)CC2(C1)CN(C(=O)C(CNC(=O)CNC(=O)C(C)N1CCN(CC(=O)[O-])CCN(CC(=O)[O-])CCN(CC(=O)[O-])CC1)NC(=O)CNC(=O)C(C)N1CCN(CC(=O)[O-])CCN(CC(=O)[O-])CCN(CC(=O)[O-])CC1)C3)N1CCN(CC(=O)[O-])CCN(CC(=O)[O-])CCN(CC(=O)[O-])CC1.[Gd+3].[Gd+3].[Gd+3].[Gd+3].[Gd+3].[Gd+3] (stereo not shown) [Compound 8] | 14.6 | 12.5 |  |
| C[C@H](C(=O)NCC(=O)N1CCN(C(=O)CNC(=O)[C@@H](C)N2CCN(CC(=O)[O-])CCN(CC(=O)[O-])CCN(CC(=O)[O-])CC2)CC(C(=O)NCCN(CCNC(=O)C2CN(C(=O)CNC(=O)[C@@H](C)N3CCN(CC(=O)[O-])CCN(CC(=O)[O-])CCN(CC(=O)[O-])CC3)CCN(C(=O)CNC(=O)[C@@H](C)N3CCN(CC(=O)[O-])CCN(CC(=O)[O-])CCN(CC(=O)[O-])CC3)C2)C(=O)C2CN(C(=O)CNC(=O)[C@@H](C)N3CCN(CC(=O)[O-])CCN(CC(=O)[O-])CCN(CC(=O)[O-])CC3)CCN(C(=O)CNC(=O)[C@@H](C)N3CCN(CC(=O)[O-])CCN(CC(=O)[O-])CCN(CC(=O)[O-])CC3)C2)C1)N1CCN(CC(=O)[O-])CCN(CC(=O)[O-])CCN(CC(=O)[O-])CC1.[Gd+3].[Gd+3].[Gd+3].[Gd+3].[Gd+3].[Gd+3] [Compound 5] | 14.3 | 13.0 |  |
| CCCCOc1ccc(CCCC(C(=O)O)N2CCN(CC(=O)O)CCN(CC(=O)O)CCN(CC(=O)O)CC2)cc1 (stereo not shown) [Compound 18] | 15.8 | 4.4 | 94 |
| CCCC(C(=O)[O-])N1CCN(CC(=O)[O-])CCN(C(Cc2ccc(OCC)cc2)C(=O)O)CCN(CC(=O)[O-])CC1.[Gd+3] (stereo not shown) [Compound 17] | 7.5 | 4.4 | 99 |
| CC(C(=O)NCC(=O)NCC(CNC(=O)CNC(=O)C(C)N1CCN(CC(=O)[O-])CCN(CC(=O)[O-])CCN(CC(=O)[O-])CC1)C(=O)NCCN(CCNC(=O)C(CNC(=O)CNC(=O)C(C)N1CCN(CC(=O)[O-])CCN(CC(=O)[O-])CCN(CC(=O)[O-])CC1)CNC(=O)CNC(=O)C(C)N1CCN(CC(=O)[O-])CCN(CC(=O)[O-])CCN(CC(=O)[O-])CC1)C(=O)CNC(=O)C(C)N1CCN(CC(=O)[O-])CCN(CC(=O)[O-])CCN(CC(=O)[O-])CC1)N1CCN(CC(=O)[O-])CCN(CC(=O)[O-])CCN(CC(=O)[O-])CC1.[Gd+3].[Gd+3].[Gd+3].[Gd+3].[Gd+3] (stereo not shown) [Compound 1] | 13.0 | 11.1 |  |
| O=C([O-])CN1CCN(CC(=O)[O-])CCN(CC(=O)N2CCN(C(=O)CN3CCN(CC(=O)[O-])CCN(CC(=O)[O-])CCN(CC(=O)[O-])CC3)CC(C(=O)N3CC4CN(C(=O)C5CN(C(=O)CN6CCN(CC(=O)[O-])CCN(CC(=O)[O-])CCN(CC(=O)[O-])CC6)CCN(C(=O)CN6CCN(CC(=O)[O-])CCN(CC(=O)[O-])CCN(CC(=O)[O-])CC6)C5)CC(C3)N4)C2)CCN(CC(=O)[O-])CC1.[Gd+3].[Gd+3].[Gd+3].[Gd+3] [Compound 9] |  | 7.4 |  |
| O=C([O-])CN1CCN(CC(=O)[O-])CCN(C(Cc2ccc(OCC(F)(F)C(F)F)cc2)C(=O)[O-])CCN(CC(=O)O)CC1.[Gd+3] (stereo not shown) [Compound 21] | 10.8 | 3.5 | 90 |
| O=C([O-])CN1CCN(CC(=O)[O-])CCN(CC(=O)NCC(CNC(=O)CN2CCN(CC(=O)[O-])CCN(CC(=O)[O-])CCN(CC(=O)[O-])CC2)(CNC(=O)CN2CCN(CC(=O)[O-])CCN(CC(=O)[O-])CCN(CC(=O)[O-])CC2)CNC(=O)CN2CCN(CC(=O)[O-])CCN(CC(=O)[O-])CCN(CC(=O)[O-])CC2)CCN(CC(=O)[O-])CC1.[Gd+3].[Gd+3].[Gd+3].[Gd+3] [Compound 10] | 9.7 | 7.3 |  |
